According to patent US8119633B2, “Substituted sulfonamide compounds” (Gruenenthal GmbH, priority 2007, dated 2012):

Assays:
[1] = biological target: T1, human bradykinin receptor 1 (B1R) (Homo sapiens, UniProt P46663); test: Functional study on the bradykinin receptor 1 (B1R), human: FLIPR Ca2+ influx assay; assay type: cell-based; conditions: test substance 10 μM; CHO K1 cells transfected with human B1R; Lys-Des-Arg9-bradykinin at EC80; Ca2+ influx (Fluo-4, FLIPR); read-out: B1R antagonism, human [10 μM] % inhibition
T1 construct: expressed in transfected cells; host or cells: CHO K1 cells
T1 sequence (P46663 1-353): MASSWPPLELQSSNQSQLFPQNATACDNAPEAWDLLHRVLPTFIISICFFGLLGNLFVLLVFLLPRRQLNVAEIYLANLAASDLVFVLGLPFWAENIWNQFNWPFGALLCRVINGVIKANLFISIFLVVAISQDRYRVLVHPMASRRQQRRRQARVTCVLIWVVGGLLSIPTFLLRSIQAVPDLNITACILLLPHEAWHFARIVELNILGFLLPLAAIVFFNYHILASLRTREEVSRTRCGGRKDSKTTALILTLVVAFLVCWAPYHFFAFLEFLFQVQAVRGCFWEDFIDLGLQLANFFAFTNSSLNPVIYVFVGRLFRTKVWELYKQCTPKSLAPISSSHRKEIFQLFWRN
From the text: Functional Study on the Human Bradykinin Receptor 1 (B1R)
(§1) The agonistic or antagonistic action of substances can be determined on the bradykinin receptor 1 (B1R) of the species human and rat using the following assay. According to this assay, the Ca^2+ influx through the channel is quantified with the aid of a Ca^2+-sensitive dye (Fluo-4 type, Molecular Probes Europe BV, Leiden, Netherlands) using a Fluorescent Imaging Plate Reader (FLIPR, Molecular Devices, Sunnyvale, USA).
(§2) Chinese hamster ovary cells (CHO K1 cells) which have been stably transfected with the human B1R gene (hB1R cells) or with the B1R gene of the rat (rB1R cells) are used. For functional studies, the cells are plated out on black 96-well plates having a clear base (BD Biosciences, Heidelberg, Germany or Greiner, Frickenhausen, Germany) in a density of 20,000-35,000 cells/well. The cells are incubated overnight at 37° C. and with 5% CO2 in culture medium (hB1R cells: Nutrient Mixture Ham's F12, Gibco Invitrogen GmbH, Karlsruhe, Germany or DMEM, Sigma-Aldrich, Taufkirchen, Germany; rB1R cells: D-MEM/F12, Gibco Invitrogen GmbH, Karlsruhe, Germany), with 10 vol. % FBS (fetal bovine serum, Gibco Invitrogen GmbH, Karlsruhe, Germany or PAN Biotech GmbH, Aidenbach, Germany).
(§3) On the following day, the cells are loaded for 60 minutes at 37° C. with 2.13 μM Fluo-4 (Molecular Probes Europe BV, Leiden, Netherlands) in HBSS buffer (Hank's buffered saline solution, Gibco Invitrogen GmbH, Karlsruhe, Germany) with 2.5 mM probenecid (Sigma-Aldrich, Taufkirchen, Germany) and 10 mM HEPES (Sigma-Aldrich, Taufkirchen, Germany). The plates are then washed twice with HBSS buffer, and HBSS buffer additionally containing 0.1% BSA (bovine serum albumin; Sigma-Aldrich, Taufkirchen, Germany), 5.6 mM glucose and 0.05% gelatin (Merck KGaA, Darmstadt, Germany) is added to the plates. After incubation for a further 20 minutes at room temperature, the plates are inserted into the FLIPR for Ca^2+ measurement. Alternatively, washing is carried out with buffer A (15 mM HEPES, 80 mM NaCl, 5 mM KCl, 1.2 mM CaCl2, 0.7 mM MgSO4, 2 g/l glucose, 2.5 mM probenecid) followed by loading with buffer A with added 2.5 μM Fluo-4 and 0.025% Pluronic F127 (Sigma-Aldrich, Taufkirchen, Germany). The cells are then washed twice with buffer A and incubated for 30 minutes at room temperature with buffer A additionally containing 0.05% BSA and 0.05% gelatin and are then inserted into the FLIPR for Ca^2+ measurement.
(§4) The Ca^2+-dependent fluorescence is measured before and after the addition of substances (λex=488 nm, λem=540 nm). Quantification is carried out by measuring the highest fluorescence intensity (FC, fluorescence counts) over time.
(§5) The FLIPR protocol consists of two substance additions. Test substances (10 μM) are first pipetted onto the cells and the Ca^2+ influx is compared with the control (hB1R: Lys-Des-Arg^9-bradykinin>=0.5 nM; rB1R: Des-Arg^9-bradykinin 10 μM). This gives the activation in %, based on the Ca^2+ signal after addition of Lys-Des-Arg^9-bradykinin (>=0.5 nM) or Des-Arg^9-bradykinin (10 μM).
(§6) After 10-20 minutes' incubation, Lys-Des-Arg^9-bradykinin (hB1R) or Des-Arg^9-bradykinin (rB1R) is applied in the concentration of the EC80, and the influx of Ca^2+ is likewise determined.
(§7) Antagonists lead to suppression of the Ca^2+ influx. The % inhibition compared with the maximum achievable inhibition is calculated.
(§8) In order to determine the IC50 value, the substances are added in various concentrations. Duplicate or triplicate determinations (n=2 or n=3) are carried out, and these are repeated in at least one further independent experiment (N>=2).

[2] = biological target: T2, bradykinin receptor 1 (B1R) of the rat (Rattus norvegicus, UniProt P97583); test: Functional study on the bradykinin receptor 1 (B1R), rat: FLIPR Ca2+ influx assay; assay type: cell-based; conditions: test substance 10 μM; CHO K1 cells transfected with rat B1R; Des-Arg9-bradykinin at EC80; Ca2+ influx (Fluo-4, FLIPR); read-out: B1R antagonism, rat [10 μM] % inhibition
T2 construct: expressed in transfected cells; host or cells: CHO K1 cells
T2 sequence (P97583 1-337): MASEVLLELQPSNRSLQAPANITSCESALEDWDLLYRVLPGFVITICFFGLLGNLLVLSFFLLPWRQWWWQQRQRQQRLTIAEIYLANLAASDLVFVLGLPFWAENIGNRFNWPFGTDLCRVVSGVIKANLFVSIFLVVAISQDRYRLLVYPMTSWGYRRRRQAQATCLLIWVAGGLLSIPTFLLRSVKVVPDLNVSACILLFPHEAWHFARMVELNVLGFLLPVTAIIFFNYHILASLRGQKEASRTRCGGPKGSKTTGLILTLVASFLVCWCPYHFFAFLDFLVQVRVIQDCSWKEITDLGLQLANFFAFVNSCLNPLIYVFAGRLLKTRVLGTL
From the text: as §1, §2, §3, §4, §5, §6, §7, §8

Compound	inhibition at 10 µM [1]	inhibition at 10 µM [2]
CN(C)C(c1ccc(F)cc1)C1CCC(NC(=O)CC2c3ccccc3CCN2S(=O)(=O)c2ccc(Cl)c(Cl)c2)CC1 (stereo not drawn) [Example 27, 2-(2-(3,4-dichlorophenylsulfonyl)-1,2,3,4-tetrahydroisoquinolin-1-yl)-N-(4-((dimethylamino)(4-fluorophenyl)methyl)cyclohexyl)acetamide]	103%	78%
CN(C)C(c1cccc(F)c1)C1CCC(CNC(=O)CC2c3ccccc3CCN2S(=O)(=O)c2ccc(Cl)c(Cl)c2)CC1 (stereo not drawn) [Example 28, 2-[2-(3,4-dichloro-benzenesulfonyl)-1,2,3,4-tetrahydro-isoquinolin-1-yl]-N-{4-[dimethylamino-(3-fluoro-phenyl)-methyl]-cyclohexylmethyl}-acetamide]	26.3%	34%
CN(C)C(c1ccccc1)C1CCC(CNC(=O)CC2c3ccccc3CCN2S(=O)(=O)c2ccc(Cl)c(Cl)c2)CC1 (stereo not drawn) [Example 29, 2-[2-(3,4-dichloro-benzenesulfonyl)-1,2,3,4-tetrahydro-isoquinolin-1-yl]-N-[4-(dimethylamino-phenyl-methyl)-cyclohexylmethyl]-acetamide]	64.5%	45%
CN(C)C(CCc1ccccc1)C1CCC(CNC(=O)CC2c3ccccc3CCN2S(=O)(=O)c2ccc(Cl)c(Cl)c2)CC1 (stereo not drawn) [Example 30, 2-[2-(3,4-dichloro-benzenesulfonyl)-1,2,3,4-tetrahydro-isoquinolin-1-yl]-N-[4-(1-dimethylamino-3-phenyl-propyl)-cyclohexylmethyl]-acetamide]	75.7%	58%
CN(C)C(c1ccc(F)cc1)C1CCC(CNC(=O)CC2c3ccccc3CCN2S(=O)(=O)c2ccc(Cl)c(Cl)c2)CC1 (stereo not drawn) [Example 31, 2-[2-(3,4-dichloro-benzenesulfonyl)-1,2,3,4-tetrahydro-isoquinolin-1-yl]-N-{4-[dimethylamino-(4-fluoro-phenyl)-methyl]-cyclohexylmethyl}-acetamide]	54%	48%
CN(C)C(c1ccc(Cl)cc1)C1CCC(CNC(=O)CC2c3ccccc3CCN2S(=O)(=O)c2ccc(Cl)c(Cl)c2)CC1 (stereo not drawn) [Example 32, N-{4-[(4-chloro-phenyl)-dimethylamino-methyl]-cyclohexylmethyl}-2-[2-(3,4-dichloro-benzenesulfonyl)-1,2,3,4-tetrahydro-isoquinolin-1-yl]-acetamide]	10.7%	15%
CN(C)C(c1ccc(Cl)cc1)C1CCC(CCNC(=O)CC2c3ccccc3CCN2S(=O)(=O)c2ccc(Cl)c(Cl)c2)CC1 (stereo not drawn) [Example 33, N-(2-{4-[(4-chloro-phenyl)-dimethylamino-methyl]-cyclohexyl}-ethyl)-2-[2-(3,4-dichloro-benzenesulfonyl)-1,2,3,4-tetrahydro-isoquinolin-1-yl]-acetamide]	42.2%	18%
CN(C)C(c1cccc(F)c1)C1CCC(CCNC(=O)CC2c3ccccc3CCN2S(=O)(=O)c2ccc(Cl)c(Cl)c2)CC1 (stereo not drawn) [Example 34, 2-[2-(3,4-dichloro-benzenesulfonyl)-1,2,3,4-tetrahydro-isoquinolin-1-yl]-N-(2-{4-[dimethylamino-(3-fluoro-phenyl)-methyl]-cyclohexyl}-ethyl)-acetamide]	71.2%	41%
CN(C)C(c1ccc(F)cc1)C1CCC(CCNC(=O)CC2c3ccccc3CCN2S(=O)(=O)c2ccc(Cl)c(Cl)c2)CC1 (stereo not drawn) [Example 35, 2-[2-(3,4-dichloro-benzenesulfonyl)-1,2,3,4-tetrahydro-isoquinolin-1-yl]-N-(2-{4-[dimethylamino-(4-fluoro-phenyl)-methyl]-cyclohexyl}-ethyl)-acetamide]	79.5%	49%
CN(C)C(c1cccc(F)c1)C1CCC(NC(=O)c2ccccc2N(C)S(=O)(=O)c2ccc(Cl)c(Cl)c2)CC1 (stereo not drawn) [Example 36, 2-[(3,4-dichloro-benzenesulfonyl)-methyl-amino]-N-{4-[dimethylamino-(3-fluoro-phenyl)-methyl]-cyclohexyl}-benzamide]	64.1%	67%
CN(C)C(c1ccc(F)cc1)C1CCC(NC(=O)c2ccccc2N(C)S(=O)(=O)c2ccc(Cl)c(Cl)c2)CC1 (stereo not drawn) [Example 37, 2-[(3,4-dichloro-benzenesulfonyl)-methyl-amino]-N-{4-[dimethylamino-(4-fluoro-phenyl)-methyl]-cyclohexyl}-benzamide]	82.2%	64%
CN(C)C(c1ccccc1)C1CCC(CNC(=O)c2ccccc2N(C)S(=O)(=O)c2ccc(Cl)c(Cl)c2)CC1 (stereo not drawn) [Example 38, 2-[(3,4-dichloro-benzenesulfonyl)-methyl-amino]-N-[4-(dimethylamino-phenylmethyl)-cyclohexylmethyl]-benzamide]	17.9%	15%
CN(C)C(CCc1ccccc1)C1CCC(CNC(=O)c2ccccc2N(C)S(=O)(=O)c2ccc(Cl)c(Cl)c2)CC1 (stereo not drawn) [Example 39, 2-[(3,4-dichloro-benzenesulfonyl)-methyl-amino]-N-[4-(1-dimethylamino-3-phenyl-propyl)-cyclohexylmethyl]-benzamide]	79.3%	42%
CN(C)C(c1ccc(F)cc1)C1CCC(CNC(=O)c2ccccc2N(C)S(=O)(=O)c2ccc(Cl)c(Cl)c2)CC1 (stereo not drawn) [Example 40, 2-[(3,4-dichloro-benzenesulfonyl)-methyl-amino]-N-{4-[dimethylamino-(4-fluoro-phenyl)-methyl]-cyclohexylmethyl}-benzamide]	17.1%	20%
CN(C)C(c1ccc(Cl)cc1)C1CCC(CNC(=O)c2ccccc2N(C)S(=O)(=O)c2ccc(Cl)c(Cl)c2)CC1 (stereo not drawn) [Example 41, N-{4-[(4-chloro-phenyl)-dimethylamino-methyl]-cyclohexylmethyl}-2-[(3,4-dichloro-benzenesulfonyl)-methyl-amino]-benzamide]	22%	25%
